The nature of the series: Pharmacokinetic evaluation, C57 mouse test. The class given is in vivo. The conditions noted are these: C57 mice; for AUC(0-t): read-out: Area under curve AUC0-t; for half-life: read-out: Half-life T1/2 (converted); for Cmax: read-out: Plasma concentration Cmax. The protocol: With C57 mice as test animals, the plasma concentration of the compound of Example 26-1 was determined by LC/MS/MS at different time points after intragastric (i.g.)/intravenous (i.v.) administration to C57 mice. The pharmacokinetic behavior of the compound of the present disclosure in C57 mice was studied and its pharmacokinetic profile was evaluated.
Eighteen female C57 mice were evenly divided into 2 groups and fasted overnight, and the 2 groups were dosed intragastrically and intravenously, respectively. The mice were provided by Zhejiang Vital River Laboratory Animal Technology Co., Ltd.
An appropriate amount of the compound of Example 26-1 was weighed out and mixed with 5% DMSO+5% Tween 80+90% normal saline to make a 0.1 mg/mL colorless clear solution (for the intragastric administration group) and a 0.1 mg/mL colorless clear solution (for the intravenous administration group).
The intragastric administration group: the dose was 2.0 mg/kg, and the volume was 0.2 mL/10 g.
The intravenous administration group: the dose was 1.0 mg/kg, and the volume was 0.1 mL/10 g.
The intragastric administration group: Blood (0.1 mL) was collected into EDTA-K2 anticoagulation tubes before administration and 0.25 h, 0.5 h, 1.0 h, 2.0 h, 4.0 h, 6.0 h, 8.0 h, 11.0 h and 24.0 h after administration and centrifuged at 10,000 rpm for 1 min (4° C.). The plasma was separated within 1 h and stored at −20° C. before analysis. The process from blood collection to centrifugation was performed in an ice bath. Two hours after administration, feeding was resumed.
The intravenous administration group: Blood was collected before administration and 5 min, 15 min, 0.5 h, 1.0 h, 2.0 h, 4.0 h, 8.0 h, 11.0 h and 24 h after administration and processed as in the intragastric administration group.
The plasma concentration of the test compound was determined after administration of different concentrations of the test compound to C57 mice: plasma samples (25 μL) were collected from C57 mice at various time points after administration, proteins were precipitated with 200 μL of acetonitrile, and 50 μL of camptothecin (100 ng/mL) was added. The mixtures were vortexed for 5 min and centrifuged at 4000 rpm for 10 min. […] of supernatant was collected for LC-MS/MS analysis.

[1] abbreviates: female, mouse, plasma, iv, i.v., 1.0 mg/kg.
The mark [2] stands for this setting: female, mouse, plasma, po, i.g., 2.0 mg/kg.

Read-outs that look alike come from different tables or passages of the source.

Take `CC(C)C[C@H]1CCc2cc(O)ccc2[C@H]1c1ccc(N2CCC(CN3CCN(c4ccc5c(c4)CN([C@H]4CCC(=O)NC4=O)C5=O)CC3)CC2)cc1` [Example 26-1, (S)-3-(5-(4-((1-(4-((1R,2R)-6-Hydroxy-2-isobutyl-1,2,3,4-tetrahydronaphthalen-1-yl)phenyl)piperidin-4-yl)methyl)piperazin-1-yl)-1-oxoisoindolin-2-yl)piperidine-2,6-dione]: the “Clearance CL/F” value (i.v., 1.0 mg/kg) is given as 15.4 mL/min/kg. Moreover, under setting [1], the AUC(0-t) was 1070 ng·h/mL, the half-life was 4 h and the Cmax came out at 1220 ng/mL. The Vd/F (female, mouse, plasma, po, i.g., 2.0 mg/kg, read-out: Apparent distribution volume Vz/F) worked out at 28.3 L/kg. In addition, under setting [2], the AUC(0-t) stood at 517 ng·h/mL, the half-life is 5.3 h and the Cmax turned out to be 59 ng/mL. Further, the CL/F (female, mouse, plasma, po, i.g., 2.0 mg/kg, read-out: Clearance CL/F) is 62.1 mL/min/kg.
